In series [1] the test system is pERK in colon. The series can be described thus: pERK IHC in colon tissues of KPF/FC mice. Format: in vivo, mouse. The following applies: KPF/FC cohort; 10 and 25 mg/kg dose levels. The procedure:
Tumor formation in KPF/FC (KrasLSL.G12D/+; p53flox/flox; Pdx1-Cre) mice was monitored by bi-weekly palpations until the detection of a mass, which was then confirmed by ultrasound. Tumor-bearing mice were randomized and assigned into groups (n=3/dose/timepoint). Single dose of RMC-7977 was administered orally at 10 mg/kg, 25 mg/kg and 50 mg/kg. The same vehicle formulation was used for the control group. Whole blood and tissue (tumors and colons) were harvested at indicated time points preserved as previously described (See Xenograft studies section).
All tissues were fixed for up to 24 hours using 10% neutral buffered formalin and then moved to 70% ethanol for long term storage. All stainings were performed on 4-μm tissue sections. Sections were deparaffinized using a Leica XL ST5010 autostainer, after which slides were subjected to heat-activated epitope retrieval. To block endogenous peroxidases, 20 min incubation in 3% H2O2 (Fisher Scientific) was performed. Slides were further blocked in serum for 1 hour, and primary antibodies were added for overnight incubation at 4° C. The next day, slides were washed and incubated with ImmPRESS HRP Horse Anti-Rabbit IgG Polymer Detection Kit (Vector Laboratories, MP-7401) for 30 min. […] Quantitative analyses of IHC images were performed using ImageJ.

The subject of series [2] is murine PDAC cell lines. The series can be described thus: Murine cell viability assay. The series is classed as cell-based. The conditions noted are these: most murine PDAC cell lines; 72 hours. Here is the method:
(§1) PDAC murine cell lines harboring KrasG12D or KrasG12C mutations were seeded at 2×10^3 in a 96-well plate. Cells were treated 24 hours later with DMSO or serial dilutions of RMC-7977. Cell viability was evaluated 72 hours later by measuring adenosine triphosphate (ATP) levels using the CellTiter-Glo® Luminescent Cell Viability Assay (Promega, G7572) according to the manufacturer's instructions. For experiments comparing naive and resistant cell lines, live cells were fluorescently labelled using Calcein AM (20-minute incubation at 500 nM, Thermo Fisher) and counted using the SpectraMax i3X multimode detection platform (Molecular Devices). Technical triplicates were run for each biological replicate and a total of 3-4 biological replicates was done for each cell line. Growth percentage was calculated by normalizing drug-treated values to DMSO control, which was set to 100%. Four-parameter drug response curves were generated from 3+ biological replicates in GraphPad Prism. Mean±s.d. was plotted for each tested dilution.

For series [3], the system named is KPC tumor-derived cell lines. The series can be described thus: Viability of cell lines from RMC-7977 resistant or naive KPC tumors. The series is classed as cell-based, murine.
Excerpt: Patient-derived xenograft (PDX) human PDAC cell lines were provided by Dr. Anirban Maitra (MD Anderson Cancer Center): Pa01C, Pa02C, Pa14C, and Pa16C. hF39 and hF43 cell lines were provided by Dr. David Tuveson (Cold Spring Harbor Laboratory). The UM147 PDX cell line was obtained from University of Michigan (PMID: 17283135). PaCaDD-137 and PaCaDD-165 were obtained from the German Collection of Microorganisms and Cell Cultures GmbH (DSMZ, world wide web dsmz.de/). All remaining cell lines were obtained from the American Type Culture Collection (ATCC). […]
as §1, with “Cells were treated 24 hours later with DMSO or serial dilutions of RMC-7977.” left out, “Technical triplicates were run for each biological replicate and a total of 3-4 biological replicates was done for each cell line.” left out, “Four-parameter drug response curves were generated from 3+ biological replicates in GraphPad Prism. Mean±s.d. was plotted for each tested dilution.” left out

Series [4] relates to CC3+ apoptotic cells. The series can be described thus: CC3 IHC in Capan-1 xenograft model (tumor, colon, skin). The series is classed as in vivo, mouse. Here is the method: Studies were terminated early if tumor burden reached humane endpoint. Body weights were collected twice a week during the study. Means±s.e.m were plotted in the waterfall plots. For the single-dose pharmacokinetic/pharmacodynamic (PK/PD) study, mice were randomized and assigned into groups (n=3-6/dose/timepoint). […] Sakura, 4583) solution or snap-frozen in LN2 for further analysis. Whole blood was transferred into K2EDTA Microtainer tubes (BD, 365974), incubated for 5 minutes and snap-frozen in LN2. To stain tissues collected from the Capan-1 xenograft model, a similar protocol was used with the following changes. Sections were stained using a Leica BOND automated staining system and primary antibodies were detected with the Leica BOND Polymer detection kit (3-P—PV6119). Stained slides were scanned and digitized with a 3DHistotech Pannoramic whole slide scanner at 20× magnification. Image analysis was performed using HALO software from Indica Labs.

The test system of series [5] is autochthonous KPC pancreatic tumors. The conditions noted are these: 50 mg/kg q.o.d. The procedure: For survival study, KPC mice with 4-7 mm diameter tumors (as measured by ultrasound) were enrolled and treated every other day with Vehicle (n=9) or RMC-7977 (50 mg/kg; n=13). Animal health status and weight were checked daily and ultrasounds were performed every third day to monitor tumor growth. The survival end point was determined by overall health criteria scoring, where end point is determined by a score of 5 or greater based on the following criteria: • Moribund—immediate euthanasia • Abdominal distention due to hemorrhagic ascites—5 pts • Mild difficulty beathing—5 pts • Hypothermia—5 pts • Abdominal distention due to chylous ascites—3 pts • Loss of over 20% enrollment body weight—3 pts • Failure of grasp test—3 pts Jaundice or pallor—3 pts • Weak grasp test—2 pts • Failure to interact with other mice—1 pt • Hunched—1 pt • Pilorection/failure to groom—1 pt
Additional notes were made to better characterize the cause of death upon necropsy, including the presence of macro liver and/or lung metastases, jaundice, and tumor-mediated GI obstructions. Survival is denoted as Kaplan-Meier survival curves compared with a log-rank, Mantel-Cox test. Mice that reached endpoint criteria were sacrificed either at 4 or 24 hours after last dose in a manner consistent with IACUC standards and our own criteria scoring. Tissue was collected at time of necropsy for further analysis.

Structures are written as SMILES.

Experimental findings from patent US12662707B2, “MYC amplification drives resistance to pan-RAS inhibitors in pancreatic cancer” (The Trustees of Columbia University in the City of New York, priority 2024, dated 2026) are described below.

With `CCn1c(-c2cc(N3CCN(C4CC4)CC3)cnc2[C@H](C)OC)c2c3cc(ccc31)-c1csc(n1)C[C@H](NC(=O)[C@H]1[C@@H]3COC[C@@H]31)C(=O)N1CCC[C@H](N1)C(=O)OCC(C)(C)C2` [RMC-7977], the “RAS/MAPK activity (pERK) in colon tissues” value in series [1] was “rapidly restored to baseline”. Besides, the “potency in concentration-response cell viability assays” value in series [2] is given as “low nanomolar potency”. For the same compound, the “sensitivity of treatment-naive MycGain line K2293” value in series [3] (K2293) was “lower sensitivity”. Also, the “sensitivity of lines from resistant tumors vs control KPC cell line (K8484)” value in series [3] (all six lines from resistant tumors, 3-5 days) was “less sensitive”. In addition, the “time of peak of CC3+ apoptotic cells post-dose” value in series [4] (Capan-1 CDX tumors) worked out at 8 h. In addition, the “CC3+ apoptotic cells in tumors relative to vehicle” value in series [4] (Capan-1 CDX tumors, single dose) was “notable increase”. The “apoptotic cells in colon or skin” value in series [4] (tumor-bearing animals, any timepoint) is “few apoptotic cells”. For the same compound, in series [5], the “body weights compared with control KPC mice” value is listed as “similar” and the “tumor response by 3D-ultrasound” value was “tumor stabilizations or regressions”. In addition, the “increase in median survival compared to controls” value in series [5] (KPC mice) turned out to be 3.5 fold.
